From patent US20230295234A1, “ANTIMICROBIAL PEPTIDOMIMETICS” (SPEXIS AG, priority 2020, published 2023)
Peptide text beside a SMILES is read from it.

Experiments:
[1] = system: Escherichia coli ATCC 25922; details: ATCC 25922
Method: (§1) Lyophilized peptides were weighed on a Microbalance (Mettler MT5) and dissolved in sterile water to a final concentration of 1 mg/mL. Stock solutions were kept at +4° C., light protected.
(§2) Colonies of the microorganisms were diluted in saline (0.85%, NaCl) and adjusted using a McFarland reader (bioMérieux SA, Marcy-l'Etoile, France) to 0.5 McFarland standard. Subsequently, the bacterial suspension was diluted in Mueller-Hinton II (MHII, cation adjusted) broth to give approximately 5×10^5 colony forming units (CFU/mL).
(§3) 10^6 colony forming units (CFU)/mL. Aliquots (90 μl) of inoculate were added to 10 μl of water+P-80 (Polysorbate 80, 0.002% final concentration) containing the peptide in serial two-fold dilutions at 10 fold final concentration. The following microorganisms were used to determine antibiotic selectivity of the peptides: Escherichia coli ATCC 25922, Escherichia coli MCR-1 Af 45 and Klebsiella pneumoniae SSI3010.

[2] = system: Escherichia coli MCR-1 Af 45; details: MCR-1 Af 45
Method: as §1, §2, §3

[3] = system: Klebsiella pneumoniae SSI3010; details: SSI3010
Method: as §1, §2, §3

[4] = system: human red blood cells (hRBC); assay: Hemolysis of human red blood cells; assay type: cell-based; details: red cells of human, 1 h
Method: Lyophilized peptides were weighed on a Microbalance (Mettler MT5) and dissolved in sterile water to a final concentration of 1 mg/mL. Stock solutions were kept at +4° C., light protected. The peptides were tested for their hemolytic activity against human red blood cells (hRBC). Fresh hRBC were washed three times with phosphate buffered saline (PBS) and centrifuged for 5 min at 3000×g. Compounds (200 μg/mL) were incubated with 20% hRBC (v/v) for 1 h at 37° C. and shaking at 300 rpm. […] The samples were centrifuged, the supernatants were 8-fold diluted in PBS buffer and the optical densities (OD) were measured at 540 nm. […] Percent hemolysis was calculated as follows: (OD540peptide/OD540H2O)×100%.

CCCC[C@H](NC(=O)[C@H](CCCNC(=N)N)NC(=O)[C@H](CCN)NC(=O)[C@@H]1CSSC[C@H](NC(=O)[C@H](Cc2ccc(O)cc2)NC(=O)[C@@H](NC(=O)[C@@H](NC(=O)[C@@H]2CCCN2C(=O)[C@@H](NC(=O)[C@H](N)CCCCN)C(C)C)[C@@H](C)CC)[C@@H](C)CC)C(=O)N[C@@H](CC(N)=O)C(=O)N[C@@H](CCCNC(=N)N)C(=O)N[C@@H](CCCNC(=N)N)C(=O)N[C@@H]([C@@H](C)O)C(=O)N[C@H](CCN)C(=O)N[C@@H](CCCCN)C(=O)N1)C(=O)O [Example 1] (HELM PEPTIDE1{[dK].V.P.I.I.Y.C.N.R.R.T.[NCC[C@@H](N[*:1])C(=O)[*:2]].K.C.[Dab].R.[Nle]}$PEPTIDE1,PEPTIDE1,7:R3-14:R3$$$V2.0)
Escherichia coli ATCC 25922 MIC [1]: 0.0625 µg/mL | Escherichia coli MCR-1 Af 45 MIC [2]: 0.0625 µg/mL | Klebsiella pneumoniae SSI3010 MIC [3]: 0.125 µg/mL | Hemolysis at 0.2 g/L [4]: 0%

CCCC[C@H](NC(=O)[C@H](CCCNC(=N)N)NC(=O)[C@H](CCN)NC(=O)[C@@H]1CSSC(C)(C)[C@H](NC(=O)[C@H](Cc2ccc(O)cc2)NC(=O)[C@@H](NC(=O)[C@@H](NC(=O)[C@@H]2CCCN2C(=O)[C@@H](NC(=O)[C@@H]2CCCN2)C(C)C)[C@@H](C)CC)[C@@H](C)CC)C(=O)N[C@@H](CC(N)=O)C(=O)N[C@@H](CCCNC(=N)N)C(=O)N[C@@H](CCN)C(=O)N[C@@H]([C@@H](C)O)C(=O)N[C@H](CCN)C(=O)N[C@@H](CCCCN)C(=O)N1)C(=O)O [Example 2, Pro-Val-Pro-Ile-Ile-Tyr-Pen-Asn-Arg-Dab-Thr-^DDab-Lys-Cys-Dab-Arg-Nle] (HELM PEPTIDE1{P.V.P.I.I.Y.[Pen].N.R.[Dab].T.[NCC[C@@H](N[*:1])C(=O)[*:2]].K.C.[Dab].R.[Nle]}$PEPTIDE1,PEPTIDE1,7:R3-14:R3$$$V2.0)
Escherichia coli ATCC 25922 MIC [1]: 0.0625 µg/mL | Escherichia coli MCR-1 Af 45 MIC [2]: 0.0625 µg/mL | Klebsiella pneumoniae SSI3010 MIC [3]: 0.25 µg/mL | Hemolysis at 0.2 g/L [4]: 0%

CCCC[C@H](NC(=O)[C@H](CCCNC(=N)N)NC(=O)[C@H](CCC(N)=O)NC(=O)[C@@H]1CSSC(C)(C)[C@H](NC(=O)[C@H](Cc2ccc(O)cc2)NC(=O)[C@@H](NC(=O)[C@@H](NC(=O)[C@@H]2C[C@@H](N)CN2C(=O)[C@@H](NC(=O)[C@@H]2CCCN2)C(C)C)[C@@H](C)CC)[C@@H](C)CC)C(=O)N[C@@H](CC(N)=O)C(=O)N[C@@H](CCCNC(=N)N)C(=O)N[C@@H](CCN)C(=O)N[C@@H]([C@@H](C)O)C(=O)N[C@H](CCN)C(=O)N[C@@H](CCCCN)C(=O)N1)C(=O)O [Example 3, Pro-Val-Pro((4R)NH2)-Ile-Ile-Tyr-Pen-Asn-Arg-Dab-Thr-^DDab-Lys-Cys-Gln-Arg-Nle] (HELM PEPTIDE1{P.V.[N[C@@H]1C[C@@H](C(=O)[*:2])N([*:1])C1].I.I.Y.[Pen].N.R.[Dab].T.[NCC[C@@H](N[*:1])C(=O)[*:2]].K.C.Q.R.[Nle]}$PEPTIDE1,PEPTIDE1,7:R3-14:R3$$$V2.0)
Escherichia coli ATCC 25922 MIC [1]: 0.125 µg/mL | Escherichia coli MCR-1 Af 45 MIC [2]: 0.25 µg/mL | Klebsiella pneumoniae SSI3010 MIC [3]: 0.25 µg/mL | Hemolysis at 0.2 g/L [4]: 0%

CCCC[C@H](NC(=O)[C@H](CCCNC(=N)N)NC(=O)[C@H](CCN)NC(=O)[C@@H]1CSSC(C)(C)[C@H](NC(=O)[C@H](Cc2ccc(O)cc2)NC(=O)[C@@H](NC(=O)[C@@H](NC(=O)[C@@H]2CCCN2C(=O)[C@@H](NC(=O)[C@@H]2C[C@@H](N)CN2)C(C)C)[C@@H](C)CC)[C@@H](C)CC)C(=O)N[C@@H](CC(N)=O)C(=O)N[C@@H](CCCNC(=N)N)C(=O)N[C@@H](CCN)C(=O)N[C@@H]([C@@H](C)O)C(=O)N[C@H](CCN)C(=O)N[C@@H](CCCCN)C(=O)N1)C(=O)O [Example 4, Pro((4R)NH2)-Val-Pro-Ile-Ile-Tyr-Pen-Asn-Arg-Dab-Thr-^DDab-Lys-Cys-Dab-Arg-Nle] (HELM PEPTIDE1{[N[C@H]1CN[C@H](C(=O)[*:2])C1].V.P.I.I.Y.[Pen].N.R.[Dab].T.[NCC[C@@H](N[*:1])C(=O)[*:2]].K.C.[Dab].R.[Nle]}$PEPTIDE1,PEPTIDE1,7:R3-14:R3$$$V2.0)
Escherichia coli ATCC 25922 MIC [1]: 0.125 µg/mL | Escherichia coli MCR-1 Af 45 MIC [2]: 0.125 µg/mL | Klebsiella pneumoniae SSI3010 MIC [3]: 0.125 µg/mL | Hemolysis at 0.2 g/L [4]: 0%

CCCC[C@H](NC(=O)[C@H](CCCNC(=N)N)NC(=O)[C@H](CCN)NC(=O)[C@@H]1CSSC(C)(C)[C@H](NC(=O)[C@H](Cc2ccc(O)cc2)NC(=O)[C@@H](NC(=O)[C@@H](NC(=O)[C@@H]2C[C@@H](N)CN2C(=O)[C@@H](NC(=O)[C@@H]2CCCN2)C(C)C)[C@@H](C)CC)[C@@H](C)CC)C(=O)N[C@@H](CC(N)=O)C(=O)N[C@@H](CCCNC(=N)N)C(=O)N[C@@H](CCN)C(=O)N[C@@H]([C@@H](C)O)C(=O)N[C@H](CCN)C(=O)N[C@@H](CCCCN)C(=O)N1)C(=O)O [Example 5, Pro-Val-Pro((4R)NH2)-Ile-Ile-Tyr-Pen-Asn-Arg-Dab-Thr-^DDab-Lys-Cys-Dab-Arg-Nle] (HELM PEPTIDE1{P.V.[N[C@@H]1C[C@@H](C(=O)[*:2])N([*:1])C1].I.I.Y.[Pen].N.R.[Dab].T.[NCC[C@@H](N[*:1])C(=O)[*:2]].K.C.[Dab].R.[Nle]}$PEPTIDE1,PEPTIDE1,7:R3-14:R3$$$V2.0)
Escherichia coli ATCC 25922 MIC [1]: 0.0625 µg/mL | Escherichia coli MCR-1 Af 45 MIC [2]: 0.0625 µg/mL | Klebsiella pneumoniae SSI3010 MIC [3]: 0.25 µg/mL | Hemolysis at 0.2 g/L [4]: 0%

CCCC[C@H](NC(=O)[C@H](CCCNC(=N)N)NC(=O)[C@H](CCN)NC(=O)[C@@H]1CSSC(C)(C)[C@H](NC(=O)[C@H](Cc2ccc(O)cc2)NC(=O)[C@@H](NC(=O)[C@@H](NC(=O)[C@@H]2CCCN2C(=O)[C@@H](NC(=O)CNCCN)C(C)C)[C@@H](C)CC)[C@@H](C)CC)C(=O)N[C@@H](CC(N)=O)C(=O)N[C@@H](CCCNC(=N)N)C(=O)N[C@@H](CCN)C(=O)N[C@@H]([C@@H](C)O)C(=O)N[C@H](CCN)C(=O)N[C@@H](CCCCN)C(=O)N1)C(=O)O [Example 6, Ndab-Val-Pro-Ile-Ile-Tyr-Pen-Asn-Arg-Dab-Thr-^DDab-Lys-Cys-Dab-Arg-Nle] (HELM PEPTIDE1{[NCCNCC(=O)[*:2]].V.P.I.I.Y.[Pen].N.R.[Dab].T.[NCC[C@@H](N[*:1])C(=O)[*:2]].K.C.[Dab].R.[Nle]}$PEPTIDE1,PEPTIDE1,7:R3-14:R3$$$V2.0)
Escherichia coli ATCC 25922 MIC [1]: 0.125 µg/mL | Escherichia coli MCR-1 Af 45 MIC [2]: 0.125 µg/mL | Klebsiella pneumoniae SSI3010 MIC [3]: 0.25 µg/mL | Hemolysis at 0.2 g/L [4]: 0%

CCCC[C@H](NC(=O)[C@H](CCCNC(=N)N)NC(=O)[C@H](CCN)NC(=O)[C@@H]1CSSC(C)(C)[C@H](NC(=O)[C@H](Cc2ccc(O)cc2)NC(=O)[C@@H](NC(=O)[C@@H](NC(=O)CN(CCN)C(=O)[C@@H](NC(=O)[C@@H]2CCCN2)C(C)C)[C@@H](C)CC)[C@@H](C)CC)C(=O)N[C@@H](CC(N)=O)C(=O)N[C@@H](CCCNC(=N)N)C(=O)N[C@@H](CCN)C(=O)N[C@@H]([C@@H](C)O)C(=O)N[C@H](CCN)C(=O)N[C@@H](CCCCN)C(=O)N1)C(=O)O [Example 7, Pro-Val-Ndab-Ile-Ile-Tyr-Pen-Asn-Arg-Dab-Thr-^DDab-Lys-Cys-Dab-Arg-Nle] (HELM PEPTIDE1{P.V.[NCCN(CC(=O)[*:2])[*:1]].I.I.Y.[Pen].N.R.[Dab].T.[NCC[C@@H](N[*:1])C(=O)[*:2]].K.C.[Dab].R.[Nle]}$PEPTIDE1,PEPTIDE1,7:R3-14:R3$$$V2.0)
Escherichia coli ATCC 25922 MIC [1]: 0.125 µg/mL | Escherichia coli MCR-1 Af 45 MIC [2]: 0.25 µg/mL | Klebsiella pneumoniae SSI3010 MIC [3]: 0.25 µg/mL | Hemolysis at 0.2 g/L [4]: 0%

CC[C@H](C)[C@H](NC(=O)[C@@H]1C[C@@H](O)CN1C(=O)[C@@H](NC(=O)[C@@H]1C[C@@H](N)CN1C(=O)[C@H](CCCCN)NC(=O)[C@@H](N)CCCCN)C(C)C)C(=O)N[C@H](C(=O)N[C@@H](Cc1ccc(O)cc1)C(=O)N[C@@H]1C(=O)N[C@@H](CC(N)=O)C(=O)N[C@@H](CCCNC(=N)N)C(=O)N[C@@H](CCN)C(=O)N[C@@H]([C@@H](C)O)C(=O)N[C@H](CCN)C(=O)N[C@@H](CCCCN)C(=O)N[C@H](C(=O)N[C@@H](CCN)C(=O)N[C@@H](CCCNC(=N)N)C(=O)N[C@@H](Cc2ccc(O)cc2)C(=O)O)CSSC1(C)C)[C@@H](C)O [Example 127, Lys-Lys-Pro((4R)NH2)-Val-Hyp-Ile-Thr-Tyr-Pen-Asn-Arg-Dab-Thr-^DDab-Lys-Cys-Dab-Arg-Tyr] (HELM PEPTIDE1{K.K.[N[C@@H]1C[C@@H](C(=O)[*:2])N([*:1])C1].V.[Hyp].I.T.Y.[Pen].N.R.[Dab].T.[NCC[C@@H](N[*:1])C(=O)[*:2]].K.C.[Dab].R.Y}$PEPTIDE1,PEPTIDE1,9:R3-16:R3$$$V2.0; N-terminus and C-terminus assumed)
Escherichia coli ATCC 25922 MIC [1]: 0.0625 µg/mL | Klebsiella pneumoniae SSI3010 MIC [3]: 0.0625 µg/mL | Hemolysis at 0.2 g/L [4]: 0%
